The values that follow come from article PMC7835950 (Frontiers in Chemistry, 2021).

Molecules are shown by their SMILES. Like-named read-outs stand apart in the source and are kept apart here.

One assay has as its target T1, OGDH (Rattus norvegicus, UniProt Q5XI78).
T1 sequence (Q5XI78 41-1023): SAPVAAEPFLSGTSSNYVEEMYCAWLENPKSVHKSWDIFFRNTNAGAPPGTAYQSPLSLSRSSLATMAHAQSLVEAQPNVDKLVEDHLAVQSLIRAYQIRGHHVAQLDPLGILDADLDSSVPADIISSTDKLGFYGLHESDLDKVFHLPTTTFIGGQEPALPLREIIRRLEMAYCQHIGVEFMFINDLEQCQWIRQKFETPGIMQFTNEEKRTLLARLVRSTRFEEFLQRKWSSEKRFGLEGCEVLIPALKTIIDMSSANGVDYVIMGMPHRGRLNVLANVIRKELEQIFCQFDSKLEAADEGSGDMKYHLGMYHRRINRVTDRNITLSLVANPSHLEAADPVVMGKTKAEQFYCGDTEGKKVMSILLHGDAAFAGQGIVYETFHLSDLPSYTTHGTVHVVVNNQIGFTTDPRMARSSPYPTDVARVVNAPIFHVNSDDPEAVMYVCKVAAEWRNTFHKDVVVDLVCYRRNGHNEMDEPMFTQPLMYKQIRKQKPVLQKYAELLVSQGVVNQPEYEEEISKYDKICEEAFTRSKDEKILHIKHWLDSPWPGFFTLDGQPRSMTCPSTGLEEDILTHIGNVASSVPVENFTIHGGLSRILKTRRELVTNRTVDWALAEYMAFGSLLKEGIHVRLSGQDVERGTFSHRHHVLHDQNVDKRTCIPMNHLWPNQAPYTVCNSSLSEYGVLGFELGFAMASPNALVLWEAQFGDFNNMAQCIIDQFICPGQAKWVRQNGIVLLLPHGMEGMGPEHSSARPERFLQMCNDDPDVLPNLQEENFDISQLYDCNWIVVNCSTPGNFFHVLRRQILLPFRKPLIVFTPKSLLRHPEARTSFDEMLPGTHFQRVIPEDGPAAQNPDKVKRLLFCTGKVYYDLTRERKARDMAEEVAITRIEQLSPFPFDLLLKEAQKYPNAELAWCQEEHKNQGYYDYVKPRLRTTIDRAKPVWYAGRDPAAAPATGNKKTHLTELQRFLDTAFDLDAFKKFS
T1 sequence (Q01205 69-454 partner): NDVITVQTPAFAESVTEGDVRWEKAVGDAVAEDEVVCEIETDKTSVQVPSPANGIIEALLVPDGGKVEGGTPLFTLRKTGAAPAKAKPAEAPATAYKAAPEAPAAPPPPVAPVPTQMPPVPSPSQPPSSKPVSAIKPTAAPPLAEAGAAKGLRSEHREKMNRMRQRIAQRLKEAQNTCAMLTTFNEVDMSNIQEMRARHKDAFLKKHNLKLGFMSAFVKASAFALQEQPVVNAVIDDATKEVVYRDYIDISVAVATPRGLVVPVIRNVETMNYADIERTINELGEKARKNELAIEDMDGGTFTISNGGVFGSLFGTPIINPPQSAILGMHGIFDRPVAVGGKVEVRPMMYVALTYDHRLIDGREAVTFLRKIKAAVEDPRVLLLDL
T1 sequence (Q6P6R2 36-509 partner): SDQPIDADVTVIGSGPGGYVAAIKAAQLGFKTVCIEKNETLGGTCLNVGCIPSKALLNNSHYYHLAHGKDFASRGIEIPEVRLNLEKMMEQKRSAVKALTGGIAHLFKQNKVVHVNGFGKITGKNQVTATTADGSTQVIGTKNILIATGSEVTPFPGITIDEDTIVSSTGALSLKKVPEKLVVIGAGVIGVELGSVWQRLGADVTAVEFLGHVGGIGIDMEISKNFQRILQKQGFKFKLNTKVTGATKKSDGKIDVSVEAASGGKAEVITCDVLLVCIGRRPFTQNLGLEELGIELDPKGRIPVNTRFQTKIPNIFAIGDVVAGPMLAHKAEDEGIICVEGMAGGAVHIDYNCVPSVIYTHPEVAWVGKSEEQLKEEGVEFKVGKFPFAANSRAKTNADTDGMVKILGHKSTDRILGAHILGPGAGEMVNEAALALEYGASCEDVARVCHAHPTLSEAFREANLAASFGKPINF
Description: OGDH reaction (OG saturation) catalyzed by the enzyme preparation from rat heart. Type of assay: biochemical. The arrangement: the tissue fractions with the complexes enriched to a degree allowing for a robust detection of the enzymatic activities, have been used; from tissue; host or cells: rat heart. Here is the method: Reactions were started by addition of the enzyme preparations to the assay media. The amount of enzyme preparations (0.074 mg protein for the preparation from liver and 0.023 mg protein for the preparation from heart) were chosen to induce the lowest reliably measured reaction rate (ΔA340 = 0.001/min) at 0.01 mM OA without the phosphonates.
Reaction rates were calculated from linear parts of the product accumulation curves (up to 10 min, dependent on the reaction rate), excluding the initial region, where mixing the reagents and solubilization of the preparation affected the optical density.
The former equation describes one type of the active sites. […] The assumption was based on the presence of the two enzymes, OGDH and OADH, in the employed preparations.
The Km and Amax values obtained in independent experiments using the non-linear and linear regression analyses of the experimental data, were averaged and presented as Mean ± Standard Error of Mean.
The values of Ki were determined as the ratio of the corresponding Intercepts to the Slopes. In the two-site model, the Ki(1) and Ki(2) were calculated separately from the linear approximations of Km,1eff/Amax,1eff vs. [I] and Km,2eff/Amax,2eff vs. [I] dependences, respectively. […] The Ki values obtained from the non-linear and linear regression analyses of the experimental data were averaged and presented as Mean ± Standard Error of Mean.

The subject of a further assay is recombinant OGDH complex. The following applies: cited from earlier work.
Another assay has as its system recombinant human OADH. On the set-up: method as in Nemeria et al., 2017, 2018. The following applies: ref Nemeria et al., 2017, 2018, cited from earlier work.
Assay [1] has as its system other enzymes transforming organic acids or structurally related compounds. On the set-up: method as in Artiukhov et al., 2020. The following applies: ref Artiukhov et al., 2020; cited from earlier work.
Setting [2] is: OGDH reaction, heart, Eadie-Hofstee, read-out: Ki, EH.
[3] abbreviates: OGDH reaction, heart, Lineweaver-Burk, read-out: Ki, LB.
Setting [4] is: OGDH reaction, heart, Michaelis-Menten approximation, read-out: Ki, MM.
Where [5] appears, read: OGDH reaction, heart, average of MM, LB, EH, read-out: Ki, Average.
[6] abbreviates: [I] 10 µM, OGDH reaction, heart.
Where [7] appears, read: [I] 50 µM, OGDH reaction, heart.
The mark [8] stands for this setting: [I] 200 µM, OGDH reaction, heart.
Setting [9] is: [I] 1000 µM, OGDH reaction, heart.

As to `O=C(O)CCCC(=O)P(=O)(O)O` [GP, glutaryl phosphonate], the Ki – broadly, the equilibrium dissociation constant of an inhibitor or competing ligand from its target – turned out to be 49 ± 8 µM at OGDH (setting [2]), 12 ± 1 µM at OGDH (setting [3]), 39 ± 2 µM at OGDH (setting [4]) and 33 ± 11 µM on OGDH (setting [5]). The Amax at OGDH ([I] 2 µM, OGDH reaction, heart) is reported as 0.67 ± 0.02 µmol/min per mg of protein; at OGDH (setting [6]) it was 0.76 ± 0.02 µmol/min per mg of protein; on OGDH (setting [7]) it was 0.79 ± 0.03 µmol/min per mg of protein; at OGDH (setting [8]) it was 0.86 ± 0.05 µmol/min per mg of protein.
For `O=C(O)CCCC(=O)C(=O)O` [OA, 2-oxoadipate], the Km – broadly, the concentration of substrate that gives half-maximal velocity – was 520 µM with recombinant OGDH complex (OA as alternative substrate, ref Nemeria et al., 2017) and 15 µM in the assay with recombinant human OADH (read-out: Km OA of recombinant human OADH). Further, in the assay with recombinant OGDH complex (ref Nemeria et al., 2017, 2018), the “kcat OA of recombinant OGDH complex” value is 2.7 s⁻¹. The “kcat OA of recombinant OADH complex” value with recombinant human OADH was 6.0 s⁻¹.
On to `O=C(O)CCC(=O)P(=O)(O)O` [SP, succinyl phosphonate], for which, in assay [1], the “interaction with other enzymes” value is on record as “no significant interaction”. Besides, the Ki at OGDH (Ki, Average, OGDH reaction, heart, average of MM, LB, EH) is 16 ± 2 µM; at OGDH (Ki, LB, OGDH reaction, heart, Lineweaver-Burk), 13 ± 2 µM; on OGDH (Ki, MM, OGDH reaction, heart, Michaelis-Menten approximation), 20 ± 1 µM; at OGDH (setting [2]), 15 ± 1 µM; at OGDH (rounded from Table 2 (heart and liver preparations), read-out: Ki as OGDH inhibitor (order of magnitude)), 10 µM. The Amax is listed as 0.72 ± 0.01 µmol/min per mg of protein on OGDH (setting [6]), 0.71 ± 0.02 µmol/min per mg of protein on OGDH (setting [7]), 0.45 ± 0.11 µmol/min per mg of protein at OGDH (setting [8]) and 0.54 ± 0.07 µmol/min per mg of protein on OGDH (setting [9]).
`O=C(O)CCCCC(=O)P(=O)(O)O` [AP, adipoyl phosphonate]: in assay [1], the “interaction with other enzymes” value is “no significant interaction”. Also, the Ki at OGDH (setting [2]) stood at 1760 ± 77 µM; on OGDH (setting [3]) it was 2140 ± 517 µM; on OGDH (setting [4]) it was 2490 ± 341 µM; at OGDH (setting [5]), 2130 ± 211 µM. Besides, the Amax at OGDH ([I] 0.5 µM, OGDH reaction, heart) is 0.70 ± 0.02 µmol/min per mg of protein; on OGDH ([I] 2 µM, OGDH reaction, heart), 0.72 ± 0.01 µmol/min per mg of protein; on OGDH (setting [6]), 0.62 ± 0.01 µmol/min per mg of protein; at OGDH (setting [7]), 0.67 ± 0.01 µmol/min per mg of protein; on OGDH (setting [8]), 0.70 ± 0.02 µmol/min per mg of protein; on OGDH (setting [9]), 0.63 ± 0.03 µmol/min per mg of protein. Moreover, the Amax on OGDH ([I] 5000 µM, OGDH reaction, heart) is on record as 0.61 ± 0.04 µmol/min per mg of protein.
